Data: patent US11965886B2, “Method of immobilizing a cell on a support using compounds comprising a polyethylene glycol moiety” (Roche Diagnostics Operations, Inc., priority 2013, dated 2024)
Several values for one entry are separate records, joined by “and”; a condition that tells them apart may be missing. Equal entries are not always repeated. Where two headings read alike, the source gives them in different places.

How the values were obtained:
[1] = tested on: WBC; test: WBC recovery rate after centrifugation (cell stabilization, Example 5); type: cell-based; details: Centrifugation: 20 min, 500×g
[2] = tested on: WBC; test: as above; type: cell-based; details: Centrifugation: 20 min, 300×g; 10 min, 1 h, 2 h incubation
Protocol: A) WBC Recovery Rate after Centrifugation and Cell Immobilization Using Different Molecules
Centrifugation characteristics: 10 min, 300×g.
B) WBC Recovery Rate after Centrifugation Using Different Compounds—Different Points of Time
Centrifugation characteristics: 10 min, 300×g. A: Choleseryl-TEG-Cholesteryl-TEG-(SpacerC18)7-Fluos-Biotin-TEG.
C) WBC Recovery Rate after Centrifugation—Different Experimenters
Centrifugation characteristics: 10 min, 300×g. Molecule: Cholesteryl-TEG-Cholesteryl-TEG-(SpacerC18)7-Fluos-Biotin-TEG.
D) WBC Recovery Rate after Centrifugation—Different Points of Time and Centrifugation Settings
Centrifugation characteristics: 20 min, 300×g.

[3] = tested on: white blood cells (WBCs)
Protocol: In particular, the performance of a single cholesterol-molecule and different dual-linker molecules (i.e. containing two hydrophobic moieties) was tested. In detail, immobilization of white blood cells (WBCs) on a Streptavidin-coated surface using different linker molecules was tested on a 12-well plate: 300 000 WBCs/well. This was followed by the measurement of the cell recovery rate after immobilization and washing of the cells using the Cellavista instrument (10× Nuclei Operator s9s5).

[4] = tested on: WBCs; test: Immobilization of cells: recovery rate of cells on SA (streptavidin) plate or untreated plate (Example 3); type: cell-based
Protocol: The following applies for modular description of the compounds below: X=hydrophobic moiety, […]=fluorescein In the following experiment, the recovery rate of cells was determined.

[5] = tested on: Epithelial cells; test: Labelling of cells using compounds (staining/uptake); type: cell-based
From the text: (§1) 2. Labelling of Cells Using Compounds Useful in Methods of the Invention

[6] = tested on: NIH 3T3; test: as above; type: cell-based
From the text: as §1

[7] = tested on: U937; test: as above; type: cell-based
From the text: as §1

[8] = tested on: CHO; test: as above; type: cell-based
From the text: as §1

[9] = tested on: Jurkats; test: as above; type: cell-based
From the text: as §1

[10] = tested on: COS 7; test: as above; type: cell-based
From the text: as §1

[11] = tested on: Hela; test: as above; type: cell-based
From the text: as §1

[12] = tested on: MDA-MB468; test: as above; type: cell-based
From the text: as §1

[13] = tested on: MDAs in WBCs; test: Immobilization of cells: recovery rate of MDAs spiked in WBCs on SA-plate (Example 3); type: cell-based
Protocol: The following applies for modular description of the compounds below:
X=hydrophobic moiety, Y=PEG2000, Z=Biotin-TEG, F=Fluos=fluorescein
In the following experiment, the recovery rate of cells was determined.

[14] = tested on: WBCs; test: Labelling of cells using compounds (staining/uptake); type: cell-based
From the text: as §1

[15] = Sample 1, first block (concentration not given), 300 000 WBCs/well
[16] = Sample 2, compound concentration: 100 pmol/10e6 WBCs
[17] = Sample 2, compound concentration: 1 nmol/10e6 WBCs

With “3′-(Myristic acid)2-PEG2000-dT-Biotin-TEG-5′ INVERS [compound 1255]” the “WBC recovery rate after centrifugation, performance ranking” value (from here on “WBC recovery rate after centrifugation”) [1] was “followed by molecule 1255 and 1254” and the “WBC recovery rate after centrifugation” value [2] was “followed by compound 1255 and 1254”.

“5′-(Cholesteryl-TEG)2-Spacer C18-Fluos-Biotin_TEG-3′ INVERS [29.891254]” was tested, and the “WBC recovery rate after centrifugation” value [1] was “followed by molecule 1255 and 1254”, the Recovery Rate [3, 15] was 57.63% and the “cells counted per well” value [3, 15] was 157660 and 190148 and 170850. The Recovery Rate ([3]; Sample 1, compound concentration: 1 nmol/10e6 WBCs) was 82.19%, the “cells counted per well” value ([3]; Sample 1, compound concentration: 1 nmol/10e6 WBCs, 300 000 WBCs/well) was 244649 and 234262 and 260760 and the “Mean (cells counted per well)” value [3, 16] was 197067.00. For the same molecule, the Recovery Rate [3, 16] was 65.69%, the “cells counted per well” value ([3]; Sample 2, compound concentration: 100 pmol/10e6 WBCs, 300 000 WBCs/well) was 205917 and 185100 and 200184 and the “Mean (cells counted per well)” value [3, 17] was 245376.00. The Recovery Rate [3, 17] was 81.79%, the “cells counted per well” value ([3]; Sample 2, compound concentration: 1 nmol/10e6 WBCs, 300 000 WBCs/well) was 247428 and 244396 and 244304 and the “Recovery Rate” value ([4]; 10 pmol/10e6 cells) was 40.30%. The “Recovery Rate” value ([4]; 100 pmol/10e6 cells) was 64.60% and 57.63% and 65.69% and 70.07% and 81.28%, the “Recovery Rate” value ([4]; 1 nmol/10e6 cells) was 92.50% and 82.19% and 81.79% and 74.68% and the “Recovery Rate” value ([4]; 10 nmol/10e6 cells) was 83.60%. For the same molecule, the “WBC recovery rate after centrifugation” value [2] was “followed by compound 1255 and 1254”.

For “5′-CholesterylTEG-CholesterylTEG-(SpacerC18)7-dT(Determ. of concentration)-BiotinTEG-3′ [compound 1234]”, the “WBC recovery rate after centrifugation” value [1] was “best performance”, the “Recovery Rate” value ([4]; 10 pmol/10e6 cells) was 9.6% and the “Recovery Rate” value ([4]; 100 pmol/10e6 cells) was 18.8%. The “Recovery Rate” value ([4]; 300 pmol/10e6 cells) was 26.8%, the “Recovery Rate” value ([4]; 500 pmol/10e6 cells) was 24.9% and the “Recovery Rate” value ([4]; 10 nmol/10e6 cells) was 99.7%. The “Recovery Rate” value ([4]; WBCs, 350 pmol/10e6 cells, 0.000003% Tween21) was 13.0% and 25.0%, the “Recovery Rate” value ([4]; WBCs, 350 pmol/10e6 cells, 0.00001% Tween20) was 14.0% and 23.0% and the “Recovery Rate” value ([4]; WBCs, 350 pmol/10e6 cells, 0.00003% Tween20) was 12.0% and 20.0%. For the same molecule, the “Recovery Rate” value ([4]; WBCs, 350 pmol/10e6 cells, 0.00003% Tween22) was 22.0% and 36.0%, the “Recovery Rate” value ([4]; WBCs, 350 pmol/10e6 cells, 0.0001% Tween21) was 22.0% and 28.0% and the “Recovery Rate” value ([4]; WBCs, 350 pmol/10e6 cells, 0.0003% Tween20) was 12.0% and 18.0%. For the same molecule, the “Recovery Rate” value ([4]; WBCs, 350 pmol/10e6 cells, 0.001% Tween20) was 10.0% and 15.0%, the “Recovery Rate” value ([4]; WBCs, 350 pmol/10e6 cells, 1:1 diluted) was 22.0% and 25.0% and the “Recovery Rate” value ([4]; WBCs, 350 pmol/10e6 cells, US + 10′ 98° C.) was 27.0% and 23.0%. For the same molecule, the “Recovery Rate” value ([4]; WBCs, 350 pmol/10e6 cells, not evaporated, VIVA Spin) was 18.0% and 19.0%, the “Recovery Rate” value ([4]; WBCs, 350 pmol/10e6 cells, untreated) was 17.0% and 13.0% and the “Recovery Rate” value ([4]; WBCs, 1000 pmol/10e6 cells) was 35.4%. The “Recovery Rate” value ([4]; WBCs, 1000 pmol/10e6 cells, not evaporated, VIVA Spin) was 42.0% and 45.0% and the “WBC recovery rate after centrifugation” value [2] was “best performance”.

With “5′-CholesterylTEG-CholesterylTEG-PEG2000-Fluos-3′ [29.891133]” the “Labelling (staining/uptake) of cells” value [5] was “✓”, the “Labelling (staining/uptake) of cells” value [6] was “✓” and the “Labelling (staining/uptake) of cells” value [7] was “✓”. For the same molecule, the “Labelling (staining/uptake) of cells” value [8] was “✓”, the “Labelling (staining/uptake) of cells” value [9] was “✓” and the “Labelling (staining/uptake) of cells” value [10] was “✓”. For the same molecule, the “Labelling (staining/uptake) of cells” value [11] was “✓” and the “Labelling (staining/uptake) of cells” value [12] was “✓”.

For “5′-CholesterylTEG-CholesterylTEG-PEG2000-Fluos-BiotinTEG-3′ [29.891180]”, the “Recovery rate treated cells (SA-plate)” value ([13]; 10e4 MDAs in WBCs) was 99.0%, the “Recovery rate treated cells (SA-plate)” value ([13]; 20e3 MDAs in WBCs) was 102.0% and the “Recovery rate treated cells (SA-plate)” value ([13]; 40e3 MDAs in WBCs) was 102.0%. For the same molecule, the “Recovery rate treated cells (SA-plate)” value ([4]; 2.16 μg/2 × 10e6 WBCs) was 78.6%, the “Recovery rate treated cells (SA-plate)” value ([4]; 21.6 μg/2 × 10e6 WBCs) was 68.6% and the “Recovery rate treated cells (SA-plate)” value ([4]; 216 μg/2 × 10e6 WBCs) was 50.1%. For the same molecule, the “Recovery rate treated cells (SA-plate)” value ([4]; 5 × 10e5 WBCs (MDA spiking experiment)) was 70.0% and 70.8%, the “Recovery rate treated cells (SA-plate)” value ([4]; 10e6 WBCs (MDA spiking experiment)) was 69.4% and the “Recovery rate treated cells (SA-plate)” value ([4]; 200 μl Zellsus.) was 67.6% and 71.9%. The “Recovery rate treated cells (SA-plate)” value ([4]; 400 μl Zellsus.) was 78.4% and 84.1%, the “Recovery rate treated cells (SA-plate)” value ([4]; 10 min 4° C.) was 81.6% and the “Recovery rate treated cells (SA-plate)” value ([4]; 10 min RT) was 88.3%. For the same molecule, the “Recovery rate treated cells (SA-plate)” value ([4]; 800 μl Zellsus.) was 81.1% and 86.4%, the “Recovery rate treated cells (SA-plate)” value ([4]; 60 min 4° C.) was 81.7% and the “Recovery rate treated cells (SA-plate)” value ([4]; 60 min RT) was 85.5%. For the same molecule, the “Recovery rate treated cells (untreated-plate)” value ([4]; cells treated with compound, untreated plate) was 56.7%.

With `CCCCCCCCCCCCCCCCCCN1C(=CC=CC2=[N+](CCCCCCCCCCCCCCCCCC)c3ccccc3C2(C)C)C(C)(C)c2ccccc21.[O-][Cl+3]([O-])([O-])[O-]` [1,1′-Dioctadecyl-3,3,3′,3′-tetramethylindocarbocyanin perchlorate] the “Labelling (staining/uptake) of cells” value [14] was “✓ not all”, the “Labelling (staining/uptake) of cells” value [5] was “✓” and the “Labelling (staining/uptake) of cells” value [6] was “✓*”. The “Labelling (staining/uptake) of cells” value [7] was “✓”, the “Labelling (staining/uptake) of cells” value [8] was “✓” and the “Labelling (staining/uptake) of cells” value [9] was “✓”. The “Labelling (staining/uptake) of cells” value [10] was “✓”, the “Labelling (staining/uptake) of cells” value [11] was “✓” and the “Labelling (staining/uptake) of cells” value [12] was “✓”.

`CCCCC/C=C\C/C=C\CCCCCCCCN1C(=CC=CC2=[N+](CCCCCCCC/C=C\C/C=C\CCCCC)c3ccccc3C2(C)C)C(C)(C)c2ccccc21.[O-][Cl+3]([O-])([O-])[O-]` [Linol, 1,1′-dilinoleyl-3,3,3′,3′-tetramethylindocarbocyanine perchlorate] was tested, and the “Labelling (staining/uptake) of cells” value [5] was “✓”, the “Labelling (staining/uptake) of cells” value [6] was “✓” and the “Labelling (staining/uptake) of cells” value [7] was “✓”. The “Labelling (staining/uptake) of cells” value [8] was “✓”, the “Labelling (staining/uptake) of cells” value [9] was “✓” and the “Labelling (staining/uptake) of cells” value [10] was “✓”. The “Labelling (staining/uptake) of cells” value [11] was “✓” and the “Labelling (staining/uptake) of cells” value [12] was “✓”.

In the case of `CCCCCCCCCCCCCCCCCCCCCC[N+]1=C(/C=C/C=C2/N(CCCCCCCCCCCCCC)c3ccccc3C2(C)C)C(C)(C)c2ccccc21.[I-]` [PKH26], the “Labelling (staining/uptake) of cells” value [5] is reported as “✓ not all”, the “Labelling (staining/uptake) of cells” value [6] is reported as “✓” and the “Labelling (staining/uptake) of cells” value [7] is reported as “✓”. The “Labelling (staining/uptake) of cells” value [8] was “✓”, the “Labelling (staining/uptake) of cells” value [9] was “✓” and the “Labelling (staining/uptake) of cells” value [10] was “✓”. The “Labelling (staining/uptake) of cells” value [11] was “✓*” and the “Labelling (staining/uptake) of cells” value [12] was “✓”.

With `CCCCCCCCCCCCCCCC(=O)OC[C@H](COP(=O)(O)OCCNC(=O)CCc1ccc2n1[B-](F)(F)[N+]1=C(C)C=C(C)C1=C2)OC(=O)CCCCCCCCCCCCCCC.CCN(CC)CC` [Phosphatidylethanolamine, N-(4,4-difluoro-5,7-dimethyl-4-bora-3a,4a-diaza-s-indacene-3-propionyl)-1,2-dihexadecanoyl-sn-glycero-3-phosphoethanolamine, triethylammonium salt] the “Labelling (staining/uptake) of cells” value [11] was “x/✓ very weak”.

`CCCCCCCCCCCCC/C=C/[C@@H](O)[C@H](COP(=O)([O-])OCC[N+](C)(C)C)NC(=O)CCCCc1ccc2n1[B-](F)(F)[N+]1=C(C)C=C(C)C1=C2` [Sphingomyelin, N-(4,4-difluoro-5,7-dimethyl-4-bora-3a,4a-diaza-s-indacene-3-pentanoyl)sphingosyl phosphocholine] was tested, and the “Labelling (staining/uptake) of cells” value [14] was “(x)- very bad”, the “Labelling (staining/uptake) of cells” value [5] was “✓” and the “Labelling (staining/uptake) of cells” value [8] was “x very weak”. The “Labelling (staining/uptake) of cells” value [11] was “✓”.
